The values below come from patent US20240277851A1, “siRNA DELIVERY VECTOR” (COUNCIL OF SCIENTIFIC & INDUSTRIAL RESEARCH, priority 2021, published 2024).

pIC50: −log10 of the molar value. Where only a bound is given, the exact number is not on record here.

A word on the pIC50: it is the negative decadic logarithm of the IC50, by convention in mol/L. The low end stands for a high IC50, the high end for a low IC50.

Data set [1] deals with HepG2 (liver) cancer cells. The experiment in a line: Sulforhodamine B cytotoxicity, HepG2. Format: cell-based. As to conditions: HepG2, 24 h. How it is done: (§1) Cytotoxicity of Mito-Esc on different cancer cell lines HeLa (cervical), HepG2 (liver), MCF-7 (ER+ve breast), A549 (lung), DU-145 (prostate) cancer cells and MCF-10A (normal mammary epithelial cells) were determined by treating with Mito-Esc (0.5-100 μM) for 24 h and cell viability was measured by Sulforhodamine B assay.

For data set [2], the system named is MCF-10A (normal mammary epithelial cells). The experiment in a line: Sulforhodamine B cytotoxicity, MCF-10A. In kind it is cell-based. As to conditions: 24 h. As to the method:
as §1

A short description of data set [3]: Scanning and transmission electron microscopy of nanoparticles. Format: physicochemical. As to conditions: spherical shaped nanoparticles. As to the method: Transmission electron microscopy studies were performed on a Tecnai T12 microscope (FEI) at 120 kV, and images were taken using an SIS CCD camera; Samples were negatively stained with ammonium molybdate on 200 or 400 mesh carbon-coated copper grids (Ted Pella, Inc.). Before recording micrographs, the grids were air dried.
Field emission scanning electron microscopic (FESEM) analysis of a Mito-Esc nanoparticle was performed on a Carl Zeiss SIGMA HD field-emission scanning electron microscope.
(§2) The self-assembling properties of Mito-Esc were explored. The particle size of an aqueous solution (1% EtOH) of Mito-Esc was measured using Dynamic light scattering (DLS). Mito-Esc formed nanosized particles of size 166±30 nm and surface charge of 33±0.4 mV (FIG. 2A). The size and morphology of self-assembled nanoparticles of Mito-Esc was investigated by scanning and by transmission electron microscopy respectively. Mito-Esc formed spherical shaped nanoparticles of <200 nm (FIGS. 2B & 2C).

Another data set relates to MDA-MB-231 cells. The data set is described as follows: Intracellular delivery of Cy-5 siRNA by confocal imaging, MDA-MB-231. As to conditions: MDA-MB-231, Cy-5 siRNA 40 nM, 24 h. In kind it is cell-based. As to the method: (§3) FIG. 5: Detection of intracellular delivery of Cy-5 siRNA by Mito-Esc using confocal imaging. MDA-MB-231 cells were transfected with Cy-5 labelled siRNA (40 nM) with indicated delivery systems for 24 h. Transfection efficacy was evaluated using Confocal Microscopy. Cy-5 fluorescence in the cytosol is shown in blue color (Scale bar 10X). Briefly, MDA-MB-231 cells were seeded on a coverslip in 12-well plates at a density of 3×10^4 cells per well in 1 mL complete DMEM and cultured for 12 h. Fluorescent (Cy-5) siRNA was complexed either with lipofectamine-2000 (positive control) or with Mito-Esc (2.5 μM) or parent esculetin (2.5 μM) or with different cationic lipids in serum free DMEM medium for 30 min before addition into the plates. These lipoplexes were added to the cells and incubated for 6 h. After that, cells were washed twice with PBS and fixed with 4% paraformaldehyde for 15 min. Finally, slides were mounted and the cells were imaged using a confocal microscope. Florescent labeled siRNA with Mito-Esc lipoplexes were prepared as described above and incubated with MDA-MB-231 cells for 24 h. The cells were stained by DAPI to stain the nucleus. The cells were mounted and observed under confocal microscope (Olympus, Tokyo, Japan).

In data set [4] the test system is DU-145 (prostate) cancer cells. The experiment in a line: Sulforhodamine B cytotoxicity, DU-145. Format: cell-based. As to conditions: DU-145, 24 h. As to the method: as §1
The subject of data set [5] is HeLa (cervical) cancer cells. The data set is described as follows: Sulforhodamine B cytotoxicity, HeLa. The note with it: 24 h. Format: cell-based. How it is done: as §1
The test system of data set [6] is MCF-7 (ER+ve breast) cancer cells. The data set is described as follows: Sulforhodamine B cytotoxicity, MCF-7. As to conditions: MCF-7, 24 h. Format: cell-based. How it is done:
as §1

Another data set relates to MCF-10A cells. The experiment in a line: Intracellular delivery of Cy-5 siRNA by confocal imaging, MCF-10A. In kind it is cell-based. As to the method:
FIG. 6: Comparison of intracellular delivery of Cy-5 siRNA using confocal imaging. MCF-10A cells were transfected with Cy-5 labelled siRNA using different delivery mechanisms. Transfection efficacy was evaluated using Confocal Microscopy. Cy-5 fluorescence in the cytosol is shown in blue.
as §3, with “Briefly,” for “FIG. 5: Detection of intracellular delivery of Cy-5 siRNA by Mito-Esc using confocal imaging. MDA-MB-231 cells were transfected with Cy-5 labelled siRNA (40 nM) with indicated delivery systems for 24 h. Transfection efficacy was evaluated using Confocal Microscopy. Cy-5 fluorescence in the cytosol is shown in blue color (Scale bar 10X). Briefly,”

For the next data set, the system named is A549 (lung) cancer cells. The experiment in a line: Sulforhodamine B cytotoxicity, A549. As to conditions: A549, 24 h. Format: cell-based. As to the method: as §1
Data set [7] in a line: Size and surface charge of Mito-Esc nanoparticles (DLS, zeta potential). In kind it is physicochemical. As to conditions: aqueous solution (1% EtOH). How it is done: The size (hydrodynamic diameter) and the surface charge (zeta potentials) of a Mito-Esc nanoparticle were measured by photon correlation spectroscopy and the electrophoretic mobility on a Zetasizer 3000HSA (Malvern, UK). The size was measured in deionized water with a sample refractive index of 1.33, a viscosity of 0.88 cP and a temperature of 25° C. The size was measured in triplicate. The zeta potential was measured using the following parameters: viscosity, 0.88 cP; dielectric constant, 78.5, and temperature, 25° C.
as §2

Data set [8] has as its system MDA-MB-231 breast cancer cells. The experiment in a line: Trypan blue dye exclusion cell viability, MDA-MB-231. In kind it is cell-based. The note with it: MDA-MB-231, 24 h and 48 h, FIG. 1A. As to the method:
FIG. 1: Mito-Esc dose- and time-dependently induces breast cancer cell death without affecting normal cell viability. (A) MDA-MB-231 breast cancer cells were treated with various concentrations of Mito-Esc (1.25-7.5 μM). Cell viability was measured by trypan blue dye exclusion assay at 24 h and 48 h. (B) Same as A, except that cells were treated with parent Esc (5-50 μM). (C) Same as A, except that MCF10A (normal mammary epithelial) cells were treated with Mito-Esc (5-50 μM).
MDA-MB-231 (a Triple negative breast cancer cell line, ATCC) and MCF-10A cells (normal mammary epithelial cells, ATCC) were grown in Dulbecco's Modified Eagle's medium (DMEM) containing 10% FBS, 1% (v/v) Sodium Pyruvate (100 mM), Sodium bicarbonate (26 mM), L-glutamine (4 mM), penicillin (100 units/ml), and streptomycin (100 μg/ml). Cells were maintained in an incubator at 37° C. in a humidified atmosphere of 5% CO2 and 95% air.
To evaluate cytotoxicity of the Mito-Esc or Mito-Esc lipoplexes with siMnSOD, a trypan blue dye exclusion assay was used. Briefly, cells were seeded in a 12-well plate at a density of 3×10^4 cells per well and cultured overnight before transfection. […] The cell suspension (10 μl) was mixed with an equal amount of trypan blue and counted using an automated cell counter (Countess, Life Technologies). […]

The subject of data set [9] is MDA-MB-231 cells in mammary fat pad. The experiment in a line: In-vivo orthotopic MDA-MB-231 tumor model. The note with it: SCID mice, i.p. 3 and 6 mg/kg for two weeks. How it is done:
Inoculation of MDA-MB-231 cells into mammary fat pad of SCID mice: 6-week-old female SCID mice were used for the experiment. Initially, 10 nM Qtracker labeling solution (Qtracker Cell Labeling Kit, Invitrogen Q25071MP) was prepared by pre-mixing 10 μL each of Component A and Component B in a 1.5 mL microcentrifuge tube and incubated for 5 minutes at room temperature. This mixture was added to 0.2 mL of fresh complete growth medium and vortexed for 30 seconds and added to a 75-cm2 tissue culture flask containing MDA-MB-231 cells and incubated in a 37° C., 5% CO2 incubator overnight. Sub-confluent labeled cells were harvested and counted.
Cells (1×10^6) were suspended in 0.1 ml of serum free medium. To this 0.1 ml of matrigel was added and gently mixed to get a uniform cell suspension. The SCID mice were anesthetized with ketamine/xylazine cocktail (50 μL/20 g mice) and each mouse was implanted with above mentioned 1×10^6 Q-Tracker labelled MDA-MB-231 cells into the 4th pair of mammary fat pad orthotopically and sutured the fat pad after the inoculation of cells. The incision site was dressed with povidone-iodine to prevent infection every day until the incision healed. Mice were checked to see development of tumors and treatment began once the tumors reached a volume of ≥300 mm^3. […] On the day of sacrifice, tumor volumes were measured using Vernier calipers. […]

The test system of another data set is MnSOD. The data set is described as follows: MnSOD gene silencing by immunoblotting. Format: cell-based. As to conditions: MDA-MB-231, siMnSOD 40 nM, 48 h. How it is done: FIG. 4: Mito-Esc/siMnSOD complex by depleting MnSOD levels exacerbates Mito-Esc-induced breast cancer cell death. (A) MDA-MB-231 cells were incubated either with Mito-Esc/siMnSOD (40 nM) complex or with lipofectamine-2000/siMnSOD complex for 48 h and cell viability was measured by trypan blue dye exclusion assay. (B) MDA-MB-231 cells were transfected with siMnSOD (40 nM) with indicated delivery systems for 48 h and MnSOD protein levels were measured by immunoblotting. Parenthesis indicates the relative expression of MnSOD normalized to GAPDH (loading control).
At the end of the treatments, cell pellets were lysed in a RIPA buffer containing protease inhibitor cocktail, phosphatase inhibitor cocktail-2, 3. Proteins were resolved by SDS-PAGE and blotted onto a nitrocellulose membrane and blocked with 5% bovine serum albumin, washed, and incubated with primary antibodies (1:1000) over night at 4° C. The membranes were then washed and incubated for 1 h with anti-rabbit/mouse IgG horseradish peroxidase linked secondary antibodies (1:5000). ECL reagent (Amersham GE) was applied on the membrane prior to developing with a chemiluminescent system (Bio-Rad).
Cells were cultured in 12-well plates at a density of 3×10^4 cells per well (containing a glass coverslip the day before use). […]

The next data set relates to siRNA. The experiment in a line: Agarose gel electrophoresis retardation assay (siRNA binding). As to conditions: earlier findings, FIG. 2D; ratios 1:1 to 7:1. How it is done: Gel electrophoresis was performed with agarose gel (1.5% w/v) in tris-acetate-EDTA buffer (40 mM) with one drop of ethidium bromide added (concentration of EtBr stock solution: 0.625 mg/ml in H2O), at 100 V for 30 min. The siRNA lipoplexes were prepared by complexing siRNA with Mito-Esc, Mito-isoscopoletin and octyl TPP cation at described P^+/P^− ratios. The samples were incubated for 30 min at room temperature prior to addition into a well. The siRNA bands were visualized under UV illumination at 365 nm.
Mito-Esc nanoparticle solutions were prepared at various concentrations according to the desired final P+:P− charge ratio. Twenty μL solution of the Mito-Esc/siRNA complex was prepared to maintain a constant amount of siRNA in each solution (1 μg in 10 μL), and varying the amount of Mito-Esc according to the P+:P− charge ratio. The prepared mixtures were gently vortexed for 5 min. and incubated for 30 min at room temperature for complex formation.
The efficiency of Mito-Esc to bind siRNA was checked by agarose gel electrophoresis. Also, in order to assess the importance of hydrogen bonding in forming the stable siRNA complexes, Mito-isoscopoletin was synthesized by protecting the dihydroxy group with methyl group. Octyl TPP cation was used as a negative control.

Consider `O=c1cc(CCCCCCCC[P+](c2ccccc2)(c2ccccc2)c2ccccc2)c2cc(O)c(O)cc2o1` [Mito-Esc, (8-(6,7-dihydroxy-2-oxo-2H-chromen-4-yl)octyl) triphenylphosphonium], for which the pIC50 in data set [1] was 5.00; in data set [2], < 4.00; in data set [4] it was 4.81; in data set [5] it was 5.31; in [6], 5.32; in the data set on A549 (lung) cancer cells it was 5.74. Further, in data set [3], the “nanoparticle size by SEM/TEM” value was < 200 nm. Also, the “intracellular delivery of Cy-5 siRNA” value in the data set with MDA-MB-231 cells was “significantly caused the intracellular delivery of Cy-5 siRNA”. In addition, the “efficiency of siRNA delivery” value with MCF-10A cells was “lower than Lipofectamine-2000”. The “particle size (DLS)” value in data set [7] is listed as 166±30 nm. The same compound had a surface charge in [7] of 33±0.4 mV. The “concentrations causing dose-dependent cell death” value in [8] lay within 1.5 to 7.5 µM. The “breast cancer progression (tumor volume, weight)” value in [9] is on record as “regress breast cancer progression”.
Turning to `O=c1ccc2cc(O)c(O)cc2o1` [parent esculetin, esculetin], the “intracellular delivery of Cy-5 siRNA” value with MDA-MB-231 cells was “failed to deliver the Cy-5 siRNA intracellularly”. Further, the MnSOD protein levels result in the data set on MnSOD is given as “neither parent esculetin nor octyl TPP cation complexes were able to decrease MnSOD expression”.
For the compound “(8-(6,7-dimethoxy-2-oxo-2H-chromen-4-yl)octyl)triphenylphosphonium [Mito-isoscopoletin]”, the “intracellular delivery of Cy-5 siRNA” value in the data set on MDA-MB-231 cells was “failed to deliver the Cy-5 siRNA intracellularly”. Further, the “P+/P− charge ratios at which siRNA is bound (migration retarded)” value with siRNA is recorded as “did not bind the siRNA”.
